Results from US20100166659A1, “USE OF CYANINE DYES FOR THE DIAGNOSIS OF PROLIFERATIVE DISEASES” (priority 2005, published 2010).
Where two headings read alike, the source gives them in different places.

Legend:
[1] = Determination of fluorescence quantum yield of tricarbocyanine dyes; assay type: physicochemical; conditions: 2 μM
Description: Compounds 6-4, 5-36, 5-29, 5-41, NIR96009, NIR96005 and ICG (see Table 1) were tested for their fluorescence quantum yields at a concentration of 2 μM in either water or plasma. It is apparent from Table 2 that a substitution in the middle of the tricarbocyanine dye improves fluorescence quantum yield in both media.

[2] = remark *see Ref. (Licha et al. 1996), cited from earlier work
tumors = conditions: cited from earlier work

Compound | Fluorescence max. (nm) In plasma [1] | Fluorescence quantum yield (%) In plasma [1] | Fluorescence quantum yield (%) In water [1] | Fluorescence max. (nm) In plasma [2] | Fluorescence quantum yield (%) In plasma [2] | Fluorescence quantum yield (%) In water [2] | other results
CC1(C)C(/C=C/C=C(/C=C/C=C2/N(CCCCS(=O)(=O)O)c3ccc(S(=O)(=O)[O-])cc3C2(C)C)CCS(=O)(=O)O)=[N+](CCCCS(=O)(=O)O)c2ccc(S(=O)(=O)O)cc21 [Compound 5-29] | 813 nm | 9.8% | 8.2% | – | – | – | –
CC(/C=C/C=C1/N(CCS(=O)(=O)O)c2ccc(S(=O)(=O)[O-])cc2C1(C)C)=C\C=C\C1=[N+](CCS(=O)(=O)O)c2ccc(S(=O)(=O)O)cc2C1(C)C [Compound 5-36] | – | – | 12% | – | – | – | –
CC1(C)C(/C=C/C2=C(c3ccccc3)C(=C/C=C3/N(CCCCS(=O)(=O)O)c4ccc(S(=O)(=O)[O-])cc4C3(C)C)/CCC2)=[N+](CCCCS(=O)(=O)O)c2ccc(S(=O)(=O)O)cc21 [Compound 5-41] | 799 nm | 19% | 10% | – | – | – | –
CC1(C)C(/C=C/C=C/C=C/C=C2/N(CCCCS(=O)(=O)O)c3ccc4ccccc4c3C2(C)C)=[N+](CCCCS(=O)(=O)[O-])c2ccc3ccccc3c21 [ICG, indocyanine green] | – | – | – | 829 nm | 3% | 1% | Detection limit, tumor size (tumors; prior-art dye): 1 cm
CC1(C)C(/C=C/C=C/C=C/C=C2/N(CCCCS(=O)(=O)O)c3ccc(C(=O)O)cc3C2(C)C)=[N+](CCCCS(=O)(=O)[O-])c2ccc(C(=O)O)cc21 [NIR96005] | – | – | – | 795 nm | 7.2% | 5.6% | –
CC1(C)C(/C=C/C=C/C=C/C=C2/N(CCCCS(=O)(=O)O)c3ccc(C(=O)NC(CC(=O)O)C(=O)O)cc3C2(C)C)=[N+](CCCCS(=O)(=O)[O-])c2ccc(C(=O)NC(CC(=O)O)C(=O)O)cc21 (stereo not drawn) [NIR96009] | – | – | – | 786 nm | 7.8% | 5.8% | –
CC(/C=C/C=C1/N(CCS(=O)(=O)O)c2ccc(S(=O)(=O)[O-])cc2C1(C)C)=C\C=C\C1=[N+](CCS(=O)(=O)O)c2ccc(S(=O)(=O)O)cc2C1(C)C [SF64] | 787 nm | 17% | 11% | – | – | – | –
indocyanine green [ICG] | – | – | – | – | – | – | Size of ductal breast carcinomas that could be detected (tumors; DOT, 0.25 mg/kg body weight): ≥ 1 cm
